The molecules below were run against T1, human PKCθ full length enzyme (Homo sapiens, UniProt Q04759) (assay: PKCθ IMAP assay (fluorescence polarization)). Conditions: human PKCθ full length enzyme, IMAP; average value; read-out: IC50 PKCθ IMAP.
T1 construct: human PKCθ full length enzyme (Panvera Cat# P2996); purchased Panvera P2996
T1 sequence (Q04759 whole entry): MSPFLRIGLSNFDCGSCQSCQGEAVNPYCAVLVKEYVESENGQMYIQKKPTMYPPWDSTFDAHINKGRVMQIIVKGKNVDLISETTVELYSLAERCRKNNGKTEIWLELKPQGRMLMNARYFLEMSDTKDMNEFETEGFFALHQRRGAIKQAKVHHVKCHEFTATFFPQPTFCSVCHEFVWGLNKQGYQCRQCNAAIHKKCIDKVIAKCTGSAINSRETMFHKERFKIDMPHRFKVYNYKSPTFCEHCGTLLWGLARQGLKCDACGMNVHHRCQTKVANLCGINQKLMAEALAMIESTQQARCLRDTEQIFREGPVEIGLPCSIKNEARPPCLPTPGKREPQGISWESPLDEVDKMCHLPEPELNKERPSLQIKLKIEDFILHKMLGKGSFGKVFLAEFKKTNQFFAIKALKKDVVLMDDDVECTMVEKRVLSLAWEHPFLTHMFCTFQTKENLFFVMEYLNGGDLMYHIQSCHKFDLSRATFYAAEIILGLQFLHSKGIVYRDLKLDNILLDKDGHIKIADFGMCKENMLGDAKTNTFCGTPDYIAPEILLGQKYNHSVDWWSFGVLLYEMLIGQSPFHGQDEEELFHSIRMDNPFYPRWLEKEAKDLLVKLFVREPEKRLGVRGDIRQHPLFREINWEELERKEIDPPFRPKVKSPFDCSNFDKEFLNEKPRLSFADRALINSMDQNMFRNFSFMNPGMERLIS
Format: biochemical
`COc1ccc(-c2cncc(C#N)c2Nc2ccc3[nH]ccc3c2)cc1-c1ccccc1Cl` [Compound 193, 5-(2′-chloro-6-methoxybiphenyl-3-yl)-4-(1H-indol-5-ylamino)nicotinonitrile] gave an IC50 of 250 nM.
`CN(C)Cc1ccc2sc(-c3cncc(C#N)c3Nc3cccc4[nH]ccc34)cc2c1` [Compound 224, 5-{5-[(dimethylamino)methyl]-1-benzothien-2-yl}-4-(1H-indol-4-ylamino)nicotinonitrile] gave an IC50 of 4 nM.
With “4-(1H-indol-4-ylamino)-5-(4-{2-[(3-phenylpropyl)amino]ethoxy}phenyl)nicotinonitrile [Compound 347]” the IC50 was 4 nM.
In the case of `Cc1c(Nc2c(C#N)cncc2-c2ccc(OCCN3CCC(N4CCOCC4)CC3)cc2)ccc2[nH]ccc12` [Compound 424, 4-[(4-methyl-1H-indol-5-yl)amino]-5-{4-[2-(4-morpholin-4-ylpiperidin-1-yl)ethoxy]phenyl}nicotinonitrile], the IC50 is reported as 4 nM.
Molecule `Cc1c(Nc2c(C#N)cncc2-c2ccc(N3CCCCC3)nc2)ccc2[nH]ccc12` [Compound 508, 4-[(4-methyl-1H-indol-5-yl)amino]-6′-piperidin-1-yl-3,3′-bipyridine-5-carbonitrile] has an IC50 of 78 nM.
With `CCCCN(CCCC)Cc1ccc(-c2cncc(C#N)c2Nc2ccc3[nH]ccc3c2C)o1` [Compound 407, 5-{5-[(dibutylamino)methyl]-2-furyl}-4-[(4-methyl-1H-indol-5-yl)amino]nicotinonitrile] the IC50 was 20 nM.
`N#Cc1cncc(-c2ccc(O)cc2)c1Nc1cccc2[nH]ccc12` [Compound 225, 5-(4-hydroxyphenyl)-4-(1H-indol-4-ylamino)nicotinonitrile] showed an IC50 of 5 nM.
`Cc1c(Nc2c(C#N)cncc2-c2cccc3ccccc23)ccc2[nH]ccc12` [Compound 581, 4-[(4-methyl-1H-indol-5-yl)amino]-5-(1-naphthyl)nicotinonitrile] was tested, and the IC50 was 23 nM.
In the case of `N#Cc1cncc(-c2cccc(-c3ccc(C(=O)N4CCCC4)cc3)c2)c1Nc1cccc2[nH]ccc12` [Compound 149, 4-(1H-indol-4-ylamino)-5-[4′-(pyrrolidin-1-ylcarbonyl)biphenyl-3-yl]nicotinonitrile], the IC50 is reported as 70 nM.
Work on `Cc1c(Nc2c(C#N)cncc2-c2cc3cc(CN4CCN(C)CC4)ccc3o2)ccc2[nH]ccc12` [Compound 462, 4-[(4-methyl-1H-indol-5-yl)amino]-5-{5-[(4-methylpiperazin-1-yl)methyl]-1-benzofuran-2-yl}nicotinonitrile] yielded an IC50 of 0.2 nM.
Work on `N#Cc1cncc(-c2cccc(OCCNCCO)c2)c1Nc1ccc2[nH]ccc2c1` [Compound 176, 5-(3-{2-[(2-hydroxyethyl)amino]ethoxy}phenyl)-4-(1H-indol-5-ylamino)nicotinonitrile] yielded an IC50 of 30 nM.
`N#Cc1cncc(-c2cccc(-c3cccs3)c2)c1Nc1cccc2[nH]ccc12` [Compound 147, 4-(1H-indol-4-ylamino)-5-[3-(2-thienyl)phenyl]nicotinonitrile] showed an IC50 of 20 nM.
`Cc1c(Nc2c(C#N)cncc2-c2ccc(CN3CCN(C4CCCC4)CC3)o2)ccc2[nH]ccc12` [Compound 486, 5-{5-[(4-cyclopentylpiperazin-1-yl)methyl]-2-furyl}-4-[(4-methyl-1H-indol-5-yl)amino]nicotinonitrile] was tested, and the IC50 was 4 nM.
Molecule `Cc1c(Nc2c(C#N)cncc2-c2cccs2)ccc2[nH]ccc12` [Compound 561, 4-[(4-methyl-1H-indol-5-yl)amino]-5-(2-thienyl)nicotinonitrile] has an IC50 of 21 nM.
For `Cc1c(Nc2c(C#N)cncc2-c2ccc(CN3CCC(N4CCCC4)CC3)o2)ccc2[nH]ccc12` [Compound 404, 4-[(4-methyl-1H-indol-5-yl)amino]-5-{5-[(4-pyrrolidin-1-ylpiperidin-1-yl)methyl]-2-furyl}nicotinonitrile], the IC50 was 4 nM.
Molecule `COc1ccc(-c2cncc(C#N)c2Nc2ccc3[nH]ccc3c2)cc1Br` [Compound 188, 5-(3-bromo-4-methoxyphenyl)-4-(1H-indol-5-ylamino)nicotinonitrile] has an IC50 of 10 nM.
In the case of `Cc1c(Nc2c(C#N)cncc2-c2cc3cc(CN4CCNCC4)ccc3o2)ccc2[nH]ccc12` [Compound 540, 4-[(4-methyl-1H-indol-5-yl)amino]-5-[5-(piperazin-1-ylmethyl)-1-benzofuran-2-yl]nicotinonitrile], the IC50 is reported as 5 nM.
`N#Cc1cncc(-c2cccc(OCCNCCN3CCCC3)c2)c1Nc1ccc2[nH]ccc2c1` [Compound 177, 4-(1H-indol-5-ylamino)-5-(3-{2-[(2-pyrrolidin-1-ylethyl)amino]ethoxy}phenyl)nicotinonitrile] was tested, and the IC50 was 20 nM.
`N#Cc1cncc(-c2cc3cc(CNCc4ccccn4)ccc3s2)c1Nc1cccc2[nH]ccc12` [Compound 288, 4-(1H-indol-4-ylamino)-5-(5-{[(pyridin-2-ylmethyl)amino]methyl}-1-benzothien-2-yl)nicotinonitrile] gave an IC50 of 3 nM.
Molecule `COc1cc(Br)c(-c2cncc(C#N)c2Nc2ccc3[nH]ccc3c2)cc1OC` [Compound 246, 5-(2-bromo-4,5-dimethoxyphenyl)-4-(1H-indol-5-ylamino)nicotinonitrile] has an IC50 of 160 nM.
Molecule `Cc1c(Nc2c(C#N)cncc2-c2cccc(CN3CCN(C)CC3)c2)ccc2[nH]ccc12` [Compound 454, 4-[(4-methyl-1H-indol-5-yl)amino]-5-{3-[(4-methylpiperazin-1-yl)methyl]phenyl}nicotinonitrile] has an IC50 of 3 nM.
`COc1ccc(-c2cncc(C#N)c2Nc2ccc3[nH]ccc3c2)cc1OCCNCCc1ccccn1` [Compound 251, 4-(1H-indol-5-ylamino)-5-(4-methoxy-3-{2-[(2-pyridin-2-ylethyl)amino]ethoxy}phenyl)nicotinonitrile] showed an IC50 of 40 nM.
`CC(=O)Nc1ccccc1-c1cncc(C#N)c1Nc1ccc2[nH]ccc2c1C` [Compound 577, N-(2-{5-cyano-4-[(4-methyl-1H-indol-5-yl)amino]pyridin-3-yl}phenyl)acetamide] gave an IC50 of 36 nM.
`N#Cc1cncc(-c2cccc(-c3ccc(C(=O)NC4CCCC4)cc3)c2)c1Nc1cccc2[nH]ccc12` [Compound 148, 3′-[5-cyano-4-(1H-indol-4-ylamino)pyridin-3-yl]-N-cyclopentylbiphenyl-4-carboxamide] gave an IC50 of 40 nM.
`CN1CCN(CCOc2ccc(-c3cncc(C#N)c3Nc3ccc4[nH]ccc4c3)cc2)CC1` [Compound 520, 4-(1H-indol-5-ylamino)-5-{4-[2-(4-methylpiperazin-1-yl)ethoxy]phenyl}nicotinonitrile] showed an IC50 of 73 nM.
For `N#Cc1cncc(-c2cccc(C(N)=O)c2)c1Nc1cccc2[nH]ccc12` [Compound 314, 3-[5-cyano-4-(1H-indol-4-ylamino)pyridin-3-yl]benzamide], the IC50 was 100 nM.
`COCCOc1ccc(-c2cncc(C#N)c2Nc2ccc3[nH]ccc3c2C)cc1OC` [Compound 478, 5-[3-methoxy-4-(2-methoxyethoxy)phenyl]-4-[(4-methyl-1H-indol-5-yl)amino]nicotinonitrile] gave an IC50 of 11 nM.
Work on `COc1cc(-c2cncc(C#N)c2Nc2ccc3[nH]ccc3c2C)ccc1OCCN1CCOCC1` [Compound 378, 5-[3-methoxy-4-(2-morpholin-4-ylethoxy)phenyl]-4-[(4-methyl-1H-indol-5-yl)amino]nicotinonitrile] yielded an IC50 of 30 nM.
`CCCCNCc1ccc2sc(-c3cncc(C#N)c3Nc3cccc4[nH]ccc34)cc2c1` [Compound 273, 5-{5-[(butylamino)methyl]-1-benzothien-2-yl}-4-(1H-indol-4-ylamino)nicotinonitrile] showed an IC50 of 2 nM.
`N#Cc1cncc(-c2cccc(Br)c2)c1Nc1ccc2[nH]ccc2c1` [Compound 113, 5-(3-bromophenyl)-4-(1H-indol-5-ylamino)nicotinonitrile] gave an IC50 of 50 nM.
`Cc1c(Nc2c(C#N)cncc2-c2ccc(OCCCN3CCCCC3)cc2)ccc2[nH]ccc12` [Compound 474, 4-[(4-methyl-1H-indol-5-yl)amino]-5-[4-(3-piperidin-1-ylpropoxy)phenyl]nicotinonitrile] showed an IC50 of 13 nM.
`Cc1c(Nc2c(C#N)cncc2-c2ccc(CN3CCN(C)CC3)cc2)ccc2[nH]ccc12` [Compound 449, 4-[(4-methyl-1H-indol-5-yl)amino]-5-{4-[(4-methylpiperazin-1-yl)methyl]phenyl}nicotinonitrile] was tested, and the IC50 was 5 nM.
With `N#Cc1cncc(-c2cc3cc(CNCCN4CCOCC4)ccc3s2)c1Nc1cccc2[nH]ccc12` [Compound 282, 4-(1H-indol-4-ylamino)-5-(5-{[(2-morpholin-4-ylethyl)amino]methyl}-1-benzothien-2-yl)nicotinonitrile] the IC50 was 3 nM.
Work on `Cc1c(Nc2c(C#N)cncc2-c2cc3cc(CNCCCO)ccc3o2)ccc2[nH]ccc12` [Compound 384, 5-(5-{[(3-hydroxypropyl)amino]methyl}-1-benzofuran-2-yl)-4-[(4-methyl-1H-indol-5-yl)amino]nicotinonitrile] yielded an IC50 of 2 nM.
Molecule `Cc1c(Nc2c(C#N)cncc2-c2ccc(NCCN3CCOCC3)nc2)ccc2[nH]ccc12` [Compound 362, 4-[(4-methyl-1H-indol-5-yl)amino]-6′-[(2-morpholin-4-ylethyl)amino]-3,3′bipyridine-5-carbonitrile] has an IC50 of 50 nM.
`COc1ccc(-c2cncc(C#N)c2NC[C@H]2CC[C@H](N)CC2)cc1OC` [Compound 442, 4-{[(trans-4-aminocyclohexyl)methyl]amino}-5-(3,4-dimethoxyphenyl)nicotinonitrile] gave an IC50 of 1770 nM.
Molecule `Cc1c(Nc2c(C#N)cncc2-c2ccc(CN3CCOCC3)o2)ccc2[nH]ccc12` [Compound 401, 4-[(4-methyl-1H-indol-5-yl)amino]-5-[5-(morpholin-4-ylmethyl)-2-furyl]nicotinonitrile] has an IC50 of 8 nM.
For `N#Cc1cncc(-c2ccc(OCCCl)cc2)c1Nc1cccc2[nH]ccc12` [Compound 332, 5-[4-(2-chloroethoxy)phenyl]-4-(1H-indol-4-ylamino)nicotinonitrile], the IC50 was 8 nM.
Work on “4-[(4-methyl-1H-indol-5-yl)amino]-5-[5-(pyrrolidin-1-ylmethyl)-2-furyl]nicotinonitrile [Compound 410]” yielded an IC50 of 35 nM.
In the case of `N#Cc1cncc(-c2cccc(C(F)(F)F)c2)c1Nc1cccc2[nH]ccc12` [Compound 310, 4-(1H-indol-4-ylamino)-5-[3-(trifluoromethyl)phenyl]nicotinonitrile], the IC50 is reported as 20 nM.

From patent US7781591B2, “Substituted 3-cyanopyridines as protein kinase inhibitors” (Wyeth LLC, priority 2006, dated 2010)
